Results: patent US20060165654A1, “Peptides and recombinant proteins mimicking interferons” (priority 2002, published 2006)
Entries after “also recorded” stand apart in the source; their conditions may differ.

Tests used:
[1] = tested on: virus of mouse encephalomiocarditis; test: antiviral activity: suppression of cytopathic action of test-virus in L-41 and VERO cell cultures; type: cell-based; details: L-41 and VERO cells
Method: FIG. 7 Antiviral properties of de novo proteins and interferons in cell cultures L41 (human mononuclear leucosis) and VERO (kidney of green simian). The activity of preparations was determined as a minimal concentration leading to a 50% delay of the virus of mouse encephalomiocarditis cytopathic action. The average values of three independent experiments are shown ± the standard deviations.
FIG. 8 Antiviral properties of de novo proteins in the cell cultures L-41 (human mononuclear leucosis) and VERO (kidney of green simian). […] The average values of three independent experiments are shown ± standard deviations.
The average values of three independent experiments are shown ± standard deviations.
Antiviral and cytotoxity properties of obtained proteins. Testing of antiviral activity of the proteins was carried out in vitro monitoring the ability of the preparation to suppress cytopathic action of the test-virus (Ershov F., 1996, Interferon system: norm and pathology, Moscow, Medicine). Two cell lines were used in experiments: cells of human mononuclear leucosis L41 and green simian kidney VERO.
Antiviral properties of synthetic linear peptides. Testing of antiviral activity of the synthetic linear peptides was carried out in vitro monitoring the ability of the preparation to suppress cytopathic action of the test-virus (Ershov F., 1996, Interferon system: norm and pathology, Moscow, Medicine). Two cell lines were used in experiments: cells of human mononuclear leucosis L-41 and green simian kidney VERO.

[2] = tested on: human T-lymphoblastoid cell line MT4; details: cited from earlier work

Substance	antiviral activity (in words) [1]	concentrations suppressing proliferation of MT4 [2]	antiviral activity compared with human interferon-α2 ([1]; minimal concentration giving 50% delay of cytopathic action)
LKDRHDF (human interferon alfa2)	demonstration of antiviral activity	–	–
LKEKKYSP (human interferon alfa2) [reference compound]	demonstration of antiviral activity	10^−9-10^−8 M	–
LKEKKYSP-Ser-Ser-LKDRHDF (LKEKKYSPSSLKDRHDF; human interferon alfa2)	demonstration of antiviral activity	–	only one order of magnitude less; also recorded: practically completely reproduces antiviral properties of human interferon-α2
